Test results as given in PubChem BioAssay (NCI).
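All cell lines were grown in 96-well plates and treated with compound for 48 hours. TGI marks complete inhibition of growth.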

Columns and labels:
Assay in all cases: NCI anticancer screen, dose series, 48 h
UACC-257 melanoma = system: UACC-257 melanoma
HOP-18 NSCLC = system: HOP-18 NSCLC
DMS 273 small cell lung = system: DMS 273 small cell lung
SN12C renal = system: SN12C renal
MALME-3M melanoma = system: MALME-3M melanoma
OVCAR-5 ovarian = system: OVCAR-5 ovarian
OVCAR-3 ovarian = system: OVCAR-3 ovarian
A549 NSCLC = system: A549 NSCLC
DLD-1 colon = system: DLD-1 colon
DMS 114 small cell lung = system: DMS 114 small cell lung
KM20L2 colon = system: KM20L2 colon
SNB-78 CNS = system: SNB-78 CNS
SW-620 colon = system: SW-620 colon
A498 renal = system: A498 renal
SR leukemia = system: SR leukemia
NCI-H23 lung = system: NCI-H23 lung
K-562 leukemia = system: K-562 leukemia
SK-OV-3 ovarian = system: SK-OV-3 ovarian
OVCAR-4 ovarian = system: OVCAR-4 ovarian
SF-539 CNS = system: SF-539 CNS
MOLT-4 leukemia = system: MOLT-4 leukemia
ACHN renal = system: ACHN renal
SF-295 CNS = system: SF-295 CNS
SF-268 CNS = system: SF-268 CNS
NCI-H522 lung = system: NCI-H522 lung
CCRF-CEM leukemia = system: CCRF-CEM leukemia
SNB-19 CNS = system: SNB-19 CNS
UO-31 renal = system: UO-31 renal
EKVX NSCLC = system: EKVX NSCLC
OVCAR-8 ovarian = system: OVCAR-8 ovarian
SK-MEL-5 melanoma = system: SK-MEL-5 melanoma
SK-MEL-28 melanoma = system: SK-MEL-28 melanoma
SK-MEL-2 melanoma = system: SK-MEL-2 melanoma
TK-10 renal = system: TK-10 renal
U251 CNS = system: U251 CNS
SNB-75 CNS = system: SNB-75 CNS
M14 melanoma = system: M14 melanoma
CAKI-1 renal = system: CAKI-1 renal
NCI-H460 lung = system: NCI-H460 lung
HL-60(TB) leukemia = system: HL-60(TB) leukemia
HOP-62 NSCLC = system: HOP-62 NSCLC
XF 498 CNS = system: XF 498 CNS
HOP-92 NSCLC = system: HOP-92 NSCLC
IGROV1 ovarian = system: IGROV1 ovarian
HCC-2998 colon = system: HCC-2998 colon
HCT-116 colon = system: HCT-116 colon
LOX IMVI melanoma = system: LOX IMVI melanoma
UACC-62 melanoma = system: UACC-62 melanoma
RPMI-8226 leukemia = system: RPMI-8226 leukemia
NCI-H226 lung = system: NCI-H226 lung
COLO 205 colon = system: COLO 205 colon
HT29 colon = system: HT29 colon
RXF 393 renal = system: RXF 393 renal
HCT-15 colon = system: HCT-15 colon
M19-MEL melanoma = system: M19-MEL melanoma
KM12 colon = system: KM12 colon
LXFL 529 NSCLC = system: LXFL 529 NSCLC
RXF-631 renal = system: RXF-631 renal
786-0 renal = system: 786-0 renal

Q: For `N#CC1=C(O)NC(O)=C(C#N)C1c1c(Cl)cccc1Cl`, which TGI (UACC-257 melanoma) is on record?
A: > 100 µM

Q: What about the TGI (HOP-18 NSCLC) of the same compound?
A: > 100 µM

Q: And the TGI (DMS 273 small cell lung)?
A: 92 µM

Q: And the TGI (SN12C renal)?
A: > 100 µM

Q: And the TGI (MALME-3M melanoma)?
A: > 100 µM

Q: What about the TGI (OVCAR-5 ovarian) of the same compound?
A: 98.5 µM

Q: And the TGI (OVCAR-3 ovarian)?
A: > 100 µM

Q: And the TGI (A549 NSCLC)?
A: > 100 µM

Q: What about the TGI (DLD-1 colon) of the same compound?
A: 58 µM

Q: What about the TGI (DMS 114 small cell lung) of the same compound?
A: 46 µM

Q: What about the TGI (KM20L2 colon) of the same compound?
A: > 100 µM

Q: And the TGI (SNB-78 CNS)?
A: > 100 µM

Q: And the TGI (SW-620 colon)?
A: > 100 µM

Q: And the TGI (A498 renal)?
A: 64.5 µM

Q: What about the TGI (SR leukemia) of the same compound?
A: > 100 µM

Q: What about the TGI (NCI-H23 lung) of the same compound?
A: > 100 µM

Q: What about the TGI (K-562 leukemia) of the same compound?
A: > 100 µM

Q: What about the TGI (SK-OV-3 ovarian) of the same compound?
A: 69.1 µM

Q: And the TGI (OVCAR-4 ovarian)?
A: > 100 µM

Q: And the TGI (SF-539 CNS)?
A: 41.3 µM

Q: And the TGI (MOLT-4 leukemia)?
A: > 100 µM

Q: What about the TGI (ACHN renal) of the same compound?
A: > 100 µM

Q: And the TGI (SF-295 CNS)?
A: > 100 µM

Q: What about the TGI (SF-268 CNS) of the same compound?
A: > 100 µM

Q: What about the TGI (NCI-H522 lung) of the same compound?
A: > 100 µM

Q: What about the TGI (CCRF-CEM leukemia) of the same compound?
A: > 100 µM

Q: What about the TGI (SNB-19 CNS) of the same compound?
A: > 100 µM

Q: And the TGI (UO-31 renal)?
A: > 100 µM

Q: What about the TGI (EKVX NSCLC) of the same compound?
A: > 100 µM

Q: And the TGI (OVCAR-8 ovarian)?
A: 45 µM

Q: And the TGI (SK-MEL-5 melanoma)?
A: > 100 µM

Q: And the TGI (SK-MEL-28 melanoma)?
A: > 100 µM

Q: And the TGI (SK-MEL-2 melanoma)?
A: 52.3 µM

Q: What about the TGI (TK-10 renal) of the same compound?
A: > 100 µM

Q: What about the TGI (U251 CNS) of the same compound?
A: > 100 µM

Q: What about the TGI (SNB-75 CNS) of the same compound?
A: 48.4 µM

Q: What about the TGI (M14 melanoma) of the same compound?
A: > 100 µM

Q: What about the TGI (CAKI-1 renal) of the same compound?
A: > 100 µM

Q: What about the TGI (NCI-H460 lung) of the same compound?
A: 61.5 µM

Q: And the TGI (HL-60(TB) leukemia)?
A: > 100 µM

Q: And the TGI (HOP-62 NSCLC)?
A: 67.8 µM

Q: What about the TGI (XF 498 CNS) of the same compound?
A: > 100 µM

Q: And the TGI (HOP-92 NSCLC)?
A: 43.9 µM

Q: What about the TGI (IGROV1 ovarian) of the same compound?
A: > 100 µM

Q: And the TGI (HCC-2998 colon)?
A: 60 µM

Q: And the TGI (HCT-116 colon)?
A: > 100 µM

Q: What about the TGI (LOX IMVI melanoma) of the same compound?
A: 32 µM

Q: And the TGI (UACC-62 melanoma)?
A: > 100 µM

Q: What about the TGI (RPMI-8226 leukemia) of the same compound?
A: > 100 µM

Q: And the TGI (NCI-H226 lung)?
A: 64.9 µM

Q: What about the TGI (COLO 205 colon) of the same compound?
A: > 100 µM

Q: And the TGI (HT29 colon)?
A: > 100 µM

Q: And the TGI (RXF 393 renal)?
A: 28.7 µM

Q: What about the TGI (HCT-15 colon) of the same compound?
A: 51.9 µM

Q: What about the TGI (M19-MEL melanoma) of the same compound?
A: > 100 µM

Q: What about the TGI (KM12 colon) of the same compound?
A: 71.5 µM

Q: How did the TGI (UACC-257 melanoma) turn out when `C=CCC1(CN(C)C)CC/C(=C\c2ccc3c(c2)OCO3)C1=O` (configuration not stated) was run?
A: > 100 µM

Q: What about the TGI (HOP-18 NSCLC) of the same compound?
A: > 100 µM

Q: What about the TGI (DMS 273 small cell lung) of the same compound?
A: > 100 µM

Q: What about the TGI (SN12C renal) of the same compound?
A: > 100 µM

Q: And the TGI (MALME-3M melanoma)?
A: > 100 µM

Q: What about the TGI (OVCAR-5 ovarian) of the same compound?
A: > 100 µM

Q: What about the TGI (OVCAR-3 ovarian) of the same compound?
A: > 100 µM

Q: What about the TGI (A549 NSCLC) of the same compound?
A: > 100 µM

Q: And the TGI (DLD-1 colon)?
A: 81.1 µM

Q: What about the TGI (KM20L2 colon) of the same compound?
A: > 100 µM

Q: And the TGI (SNB-78 CNS)?
A: > 100 µM

Q: And the TGI (SW-620 colon)?
A: > 100 µM

Q: What about the TGI (A498 renal) of the same compound?
A: > 100 µM

Q: And the TGI (SR leukemia)?
A: > 100 µM

Q: What about the TGI (NCI-H23 lung) of the same compound?
A: > 100 µM

Q: And the TGI (K-562 leukemia)?
A: > 100 µM

Q: And the TGI (OVCAR-4 ovarian)?
A: > 100 µM

Q: What about the TGI (LXFL 529 NSCLC) of the same compound?
A: > 100 µM

Q: And the TGI (SF-539 CNS)?
A: > 100 µM

Q: What about the TGI (MOLT-4 leukemia) of the same compound?
A: 72.8 µM

Q: What about the TGI (ACHN renal) of the same compound?
A: > 100 µM

Q: What about the TGI (SF-295 CNS) of the same compound?
A: > 100 µM

Q: And the TGI (SF-268 CNS)?
A: > 100 µM

Q: What about the TGI (NCI-H522 lung) of the same compound?
A: 40.2 µM

Q: And the TGI (RXF-631 renal)?
A: 78.4 µM

Q: What about the TGI (786-0 renal) of the same compound?
A: > 100 µM

Q: What about the TGI (CCRF-CEM leukemia) of the same compound?
A: 81.4 µM

Q: And the TGI (SNB-19 CNS)?
A: > 100 µM

Q: And the TGI (UO-31 renal)?
A: > 100 µM

Q: And the TGI (EKVX NSCLC)?
A: 66.9 µM

Q: What about the TGI (OVCAR-8 ovarian) of the same compound?
A: > 100 µM

Q: And the TGI (SK-MEL-5 melanoma)?
A: 60.5 µM

Q: What about the TGI (SK-MEL-28 melanoma) of the same compound?
A: > 100 µM

Q: What about the TGI (SK-MEL-2 melanoma) of the same compound?
A: > 100 µM

Q: What about the TGI (TK-10 renal) of the same compound?
A: > 100 µM

Q: And the TGI (U251 CNS)?
A: > 100 µM

Q: What about the TGI (SNB-75 CNS) of the same compound?
A: > 100 µM

Q: And the TGI (M14 melanoma)?
A: > 100 µM

Q: And the TGI (CAKI-1 renal)?
A: > 100 µM

Q: What about the TGI (NCI-H460 lung) of the same compound?
A: > 100 µM

Q: What about the TGI (HL-60(TB) leukemia) of the same compound?
A: 15.8 µM

Q: And the TGI (HOP-62 NSCLC)?
A: > 100 µM

Q: And the TGI (HOP-92 NSCLC)?
A: > 100 µM

Q: And the TGI (IGROV1 ovarian)?
A: > 100 µM

Q: And the TGI (HCC-2998 colon)?
A: > 100 µM

Q: What about the TGI (HCT-116 colon) of the same compound?
A: > 100 µM

Q: And the TGI (LOX IMVI melanoma)?
A: > 100 µM

Q: And the TGI (UACC-62 melanoma)?
A: > 100 µM

Q: And the TGI (RPMI-8226 leukemia)?
A: 59.4 µM

Q: And the TGI (NCI-H226 lung)?
A: > 100 µM

Q: What about the TGI (COLO 205 colon) of the same compound?
A: 54.1 µM

Q: What about the TGI (HT29 colon) of the same compound?
A: > 100 µM

Q: What about the TGI (RXF 393 renal) of the same compound?
A: > 100 µM

Q: And the TGI (HCT-15 colon)?
A: > 100 µM

Q: And the TGI (M19-MEL melanoma)?
A: > 100 µM

Q: And the TGI (KM12 colon)?
A: > 100 µM
